Data from ChEMBL document CHEMBL1201862, “PubChem BioAssay data set” (2004).
The source made the active and inactive calls.

How the values were obtained:
[1] = target: Glycogen synthase kinase-3 alpha (Homo sapiens, UniProt P49840); assay: Inhibition of Human GSK-3 alpha Activity Measured in Biochemical System Using Microfluidics - 2063-06_Inhibitor_Dose_DryPowder_Activity_Set2. [Related pubchem assays (depositor defined):AID2709]
[2] = target: Glycogen synthase kinase-3 beta (Homo sapiens, UniProt P49841); assay: Inhibition of Human GSK-3 beta Activity Measured in Biochemical System Using Microfluidics - 2063-05_Inhibitor_Dose_DryPowder_Activity_Set2. [Related pubchem assays (depositor defined):AID2709]
H4 = assay: Luminescence Cell-Based Dose Response HTS to Identify Activators of 5'UTR Stem-Loop Driven Prion Protein mRNA Translation in H4 Neuroglioblastoma Cells. [Related pubchem assays: 1829 (Project Summary), 1814 (Primary HTS)]; type: functional; settings: Homo sapiens
[3] = Luminescence Cell-Based Dose Response to Identify Activators of Luciferase Translation or Activity in H4-C Neuroglioblastoma Cells. [Related pubchem assays: 1829 (Project Summary), 1814 (Primary HTS)]; type: functional
[4] = Luminescence Cell-Based Dose Confirmation HTS to Identify Activators of 5'UTR Stem-Loop Driven Alpha-Synuclein mRNA Translation in H4 Neuroglioblastoma Cells. [Related pubchem assays: 1829 (Project Summary), 1814 (Primary HTS)]; type: functional
[5] = Luminescence Cell-Based Dose Response HTS to Identify Activators of Luciferase Translation or Activity in H4 […] Cells. [Related pubchem assays: 1829 (Project Summary), 1814 (Primary HTS)]; type: functional
[6] = target: Cyclin-dependent kinase 5/CDK5 activator 1 (Homo sapiens, UniProt Q00535); assay: human CDK5 activity blockade – biochemical, microfluidic mobility shift, dry powder, selectivity assay for GSK-3 alpha inhibitor project, dose response (AID 588430)
Sequence of Cyclin-dependent kinase 5/CDK5 activator 1 (Q00535 whole entry): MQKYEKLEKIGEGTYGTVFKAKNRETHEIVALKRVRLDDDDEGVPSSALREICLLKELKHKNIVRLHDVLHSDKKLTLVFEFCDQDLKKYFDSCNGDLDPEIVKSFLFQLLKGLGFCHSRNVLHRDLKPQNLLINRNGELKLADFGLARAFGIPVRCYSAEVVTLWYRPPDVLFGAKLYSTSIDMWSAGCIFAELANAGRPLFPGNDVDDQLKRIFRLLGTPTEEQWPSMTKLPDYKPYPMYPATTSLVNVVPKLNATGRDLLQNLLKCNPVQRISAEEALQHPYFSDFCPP
Sequence of Cyclin-dependent kinase 5/CDK5 activator 1 (Q15078 whole entry, further chain): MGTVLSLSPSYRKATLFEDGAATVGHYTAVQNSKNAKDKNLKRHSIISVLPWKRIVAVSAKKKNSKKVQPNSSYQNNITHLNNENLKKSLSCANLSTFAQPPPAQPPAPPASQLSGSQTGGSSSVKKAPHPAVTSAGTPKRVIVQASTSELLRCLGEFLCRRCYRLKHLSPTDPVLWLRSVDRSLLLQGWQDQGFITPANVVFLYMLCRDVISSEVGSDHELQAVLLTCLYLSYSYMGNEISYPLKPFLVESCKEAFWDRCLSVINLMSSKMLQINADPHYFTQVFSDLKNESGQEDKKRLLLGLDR

[7] = Luminescence Cell-Based Dose Confirmation to Identify Activators of 5'UTR Stem-Loop Driven Alpha-Synuclein mRNA Translation in H4 Neuroglioblastoma Cells. [Related pubchem assays: 1829 (Project Summary), 1814 (Primary HTS)]; type: functional
[8] = Luminescence Cell-Based Dose Response to Identify Activators of 5'UTR Stem-Loop Driven Prion Protein mRNA Translation in H4-C Neuroglioblastoma Cells. [Related pubchem assays: 1829 (Project Summary), 1814 (Primary HTS)]; type: functional
HEK293 [9] = assay: optical interference in Abeta FP readout, dose response, artefact control for IDE activator project, biochemical, fluorescence polarization (AID 588442); type: functional, cell-based; settings: Homo sapiens
Insulin-degrading enzyme [10] = target: T1, Insulin-degrading enzyme (Homo sapiens, UniProt P14735); assay: cellular IDE activation of Abeta substrate cleavage – fluorescence polarization, HEK cells, dose response (AID 588439); type: functional, cell-based
T1 sequence (P14735 whole entry): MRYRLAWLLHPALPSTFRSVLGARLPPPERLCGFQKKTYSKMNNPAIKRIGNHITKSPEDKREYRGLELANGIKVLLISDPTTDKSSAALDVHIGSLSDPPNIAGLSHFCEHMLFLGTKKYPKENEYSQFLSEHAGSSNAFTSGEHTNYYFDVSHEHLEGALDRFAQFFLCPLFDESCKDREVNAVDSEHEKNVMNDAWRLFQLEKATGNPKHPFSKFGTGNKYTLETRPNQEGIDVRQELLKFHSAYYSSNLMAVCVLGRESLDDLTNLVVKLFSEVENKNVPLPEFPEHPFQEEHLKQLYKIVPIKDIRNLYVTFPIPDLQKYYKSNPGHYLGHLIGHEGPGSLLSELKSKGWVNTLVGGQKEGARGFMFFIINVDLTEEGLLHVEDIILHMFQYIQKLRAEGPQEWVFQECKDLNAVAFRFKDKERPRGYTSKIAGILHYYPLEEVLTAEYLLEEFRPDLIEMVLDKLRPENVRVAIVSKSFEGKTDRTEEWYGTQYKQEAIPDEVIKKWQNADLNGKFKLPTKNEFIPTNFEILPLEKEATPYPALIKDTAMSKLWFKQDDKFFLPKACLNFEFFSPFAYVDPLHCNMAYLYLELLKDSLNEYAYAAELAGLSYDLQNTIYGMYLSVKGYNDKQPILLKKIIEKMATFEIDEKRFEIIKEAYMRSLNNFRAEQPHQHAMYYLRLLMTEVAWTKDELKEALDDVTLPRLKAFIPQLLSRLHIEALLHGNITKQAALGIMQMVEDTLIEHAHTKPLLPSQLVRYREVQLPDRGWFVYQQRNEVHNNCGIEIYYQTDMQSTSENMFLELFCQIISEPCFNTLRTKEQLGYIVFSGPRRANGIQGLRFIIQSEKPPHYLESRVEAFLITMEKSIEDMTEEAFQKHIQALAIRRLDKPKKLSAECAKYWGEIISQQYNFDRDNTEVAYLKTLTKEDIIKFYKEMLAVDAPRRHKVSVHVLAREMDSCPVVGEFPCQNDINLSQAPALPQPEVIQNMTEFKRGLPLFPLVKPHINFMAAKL

Insulin-degrading enzyme [11] = target: T1, Insulin-degrading enzyme; assay: recombinant IDE activation, cell-free – biochemical, fluorescence polarization, counter-screen for IDE activator project, dose response (AID 588681)
HEK293 [12] = assay: membrane integrity loss in HEK cells – cell-based, fluorescence, cytotoxicity control for IDE activator project, dose response (AID 588440); type: functional; settings: Homo sapiens;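 note: cytotoxicity by LDH release measuring loss of membrane integrity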
[13] = target: Sphingosine 1-phosphate receptor 2 (Homo sapiens, UniProt O95136); assay: Late-stage fluorescence-based dose-response cell-based counterscreen assay to identify agonists of the Sphingosine 1-Phosphate Receptor 3 (S1P3): Sphingosine 1-Phosphate Receptor 2 (S1P2) agonist assay.; type: functional
[14] = target: Sphingosine 1-phosphate receptor 4 (Homo sapiens, UniProt O95977); assay: Late-stage fluorescence-based dose-response cell-based counterscreen assay to identify agonists of the Sphingosine 1-Phosphate Receptor 3 (S1P3): Sphingosine 1-Phosphate Receptor 4 (S1P4) agonist assay.; type: functional
[15] = target: Phosphorylase b kinase gamma catalytic chain, liver/testis isoform (Homo sapiens, UniProt P15735); type: functional;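 note: PHKG2 measured as one member of a kinome-wide kinase panel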
[16] = target: Serine/threonine-protein kinase pim-3 (Homo sapiens, UniProt Q86V86); type: functional;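 note: value obtained as one member of a broad kinase panel profiling effort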
[17] = target: High affinity nerve growth factor receptor (Homo sapiens, UniProt P04629); type: functional;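 note: NTRK1 tested as one member of a kinome-wide profiling panel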
[18] = target: Cyclin-dependent kinase 8 (Homo sapiens, UniProt P49336); assay: Navigating the Kinome. Panel member name: CDK8; type: functional
[19] = target: Tyrosine-protein kinase Lck (Homo sapiens, UniProt P06239); type: functional;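 note: lck was assayed as one member of a kinase panel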
[20] = target: Tyrosine-protein kinase Fyn (Homo sapiens, UniProt P06241); type: functional
Aurora kinase B = Aurora kinase B (Homo sapiens, UniProt Q96GD4); type: functional
[21] = target: Rho-associated protein kinase 1 (Homo sapiens, UniProt Q13464); type: functional;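 note: measured within a broad kinome-wide panel profiling many kinases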
[22] = target: ALK tyrosine kinase receptor (Homo sapiens, UniProt Q9UM73); type: functional;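 note: ALK tested as one member of a kinase panel screen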
Sequence of ALK tyrosine kinase receptor (Q9UM73 whole entry): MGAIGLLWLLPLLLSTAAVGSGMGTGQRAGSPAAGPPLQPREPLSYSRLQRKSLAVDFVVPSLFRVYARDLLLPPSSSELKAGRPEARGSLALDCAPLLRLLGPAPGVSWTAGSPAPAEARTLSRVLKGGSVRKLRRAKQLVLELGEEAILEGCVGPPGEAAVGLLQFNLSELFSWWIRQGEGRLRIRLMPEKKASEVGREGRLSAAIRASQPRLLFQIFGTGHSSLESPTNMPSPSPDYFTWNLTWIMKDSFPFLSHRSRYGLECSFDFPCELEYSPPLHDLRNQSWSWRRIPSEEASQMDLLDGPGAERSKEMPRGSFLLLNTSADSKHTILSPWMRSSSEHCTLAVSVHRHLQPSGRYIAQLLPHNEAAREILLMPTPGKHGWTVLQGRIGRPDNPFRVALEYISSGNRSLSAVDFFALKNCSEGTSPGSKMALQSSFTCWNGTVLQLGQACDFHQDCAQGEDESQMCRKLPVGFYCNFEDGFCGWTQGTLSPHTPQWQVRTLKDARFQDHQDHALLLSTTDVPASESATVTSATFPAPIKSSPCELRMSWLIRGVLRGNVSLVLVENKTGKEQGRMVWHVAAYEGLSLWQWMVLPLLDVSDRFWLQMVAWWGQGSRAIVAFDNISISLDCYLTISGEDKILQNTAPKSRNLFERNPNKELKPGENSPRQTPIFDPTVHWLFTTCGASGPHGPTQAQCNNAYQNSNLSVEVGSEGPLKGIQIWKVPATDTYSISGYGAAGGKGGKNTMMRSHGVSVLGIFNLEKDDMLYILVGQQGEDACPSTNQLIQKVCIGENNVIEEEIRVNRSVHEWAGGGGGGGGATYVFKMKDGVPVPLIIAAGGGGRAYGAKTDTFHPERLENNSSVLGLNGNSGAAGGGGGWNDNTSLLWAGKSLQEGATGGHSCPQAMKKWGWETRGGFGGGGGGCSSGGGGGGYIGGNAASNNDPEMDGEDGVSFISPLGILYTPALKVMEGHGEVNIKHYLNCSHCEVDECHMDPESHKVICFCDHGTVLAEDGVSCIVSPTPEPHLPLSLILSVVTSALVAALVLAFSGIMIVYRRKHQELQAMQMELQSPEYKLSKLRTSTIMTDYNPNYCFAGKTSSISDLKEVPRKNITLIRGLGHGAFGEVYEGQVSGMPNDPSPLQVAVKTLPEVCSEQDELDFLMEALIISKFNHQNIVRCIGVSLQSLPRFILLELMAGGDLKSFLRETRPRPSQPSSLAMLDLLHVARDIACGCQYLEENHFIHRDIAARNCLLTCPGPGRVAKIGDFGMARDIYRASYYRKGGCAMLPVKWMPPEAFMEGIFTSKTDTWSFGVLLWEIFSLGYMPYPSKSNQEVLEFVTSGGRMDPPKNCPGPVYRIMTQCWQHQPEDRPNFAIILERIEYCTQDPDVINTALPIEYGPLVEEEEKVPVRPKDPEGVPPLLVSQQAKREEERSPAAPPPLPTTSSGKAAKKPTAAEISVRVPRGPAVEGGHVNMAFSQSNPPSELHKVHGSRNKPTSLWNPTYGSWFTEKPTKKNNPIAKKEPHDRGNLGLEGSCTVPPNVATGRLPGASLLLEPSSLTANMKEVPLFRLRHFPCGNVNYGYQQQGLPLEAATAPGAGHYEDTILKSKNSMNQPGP

[23] = target: Hepatocyte growth factor receptor (Homo sapiens, UniProt P08581); type: functional;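 note: kinase panel profiling across the kinome, with MET as the panel member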
[24] = target: BDNF/NT-3 growth factors receptor (Homo sapiens, UniProt Q16620); type: functional;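 note: NTRK2 measured as one member of a broad kinome-wide kinase profiling panel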
[25] = target: Calcium/calmodulin-dependent protein kinase type II subunit alpha (Homo sapiens, UniProt Q9UQM7); assay: Navigating the Kinome. Panel member name: CAMK2A; type: functional
Sequence of Calcium/calmodulin-dependent protein kinase type II subunit alpha (Q9UQM7 whole entry): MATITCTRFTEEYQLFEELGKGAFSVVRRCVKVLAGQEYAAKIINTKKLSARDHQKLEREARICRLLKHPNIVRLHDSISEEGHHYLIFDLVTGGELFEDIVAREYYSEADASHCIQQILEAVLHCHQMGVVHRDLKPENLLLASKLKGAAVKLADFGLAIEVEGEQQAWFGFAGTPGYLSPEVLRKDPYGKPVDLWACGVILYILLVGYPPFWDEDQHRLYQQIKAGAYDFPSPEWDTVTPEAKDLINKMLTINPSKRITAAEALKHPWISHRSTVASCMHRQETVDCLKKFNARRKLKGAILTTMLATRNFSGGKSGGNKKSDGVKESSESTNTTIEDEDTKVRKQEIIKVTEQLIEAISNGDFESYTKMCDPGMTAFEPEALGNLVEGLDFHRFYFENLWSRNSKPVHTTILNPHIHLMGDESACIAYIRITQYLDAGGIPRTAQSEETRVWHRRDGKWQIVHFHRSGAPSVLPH

[26] = target: Dual specificity protein kinase CLK4 (Homo sapiens, UniProt Q9HAZ1); type: functional
Sequence of Dual specificity protein kinase CLK4 (Q9HAZ1 whole entry): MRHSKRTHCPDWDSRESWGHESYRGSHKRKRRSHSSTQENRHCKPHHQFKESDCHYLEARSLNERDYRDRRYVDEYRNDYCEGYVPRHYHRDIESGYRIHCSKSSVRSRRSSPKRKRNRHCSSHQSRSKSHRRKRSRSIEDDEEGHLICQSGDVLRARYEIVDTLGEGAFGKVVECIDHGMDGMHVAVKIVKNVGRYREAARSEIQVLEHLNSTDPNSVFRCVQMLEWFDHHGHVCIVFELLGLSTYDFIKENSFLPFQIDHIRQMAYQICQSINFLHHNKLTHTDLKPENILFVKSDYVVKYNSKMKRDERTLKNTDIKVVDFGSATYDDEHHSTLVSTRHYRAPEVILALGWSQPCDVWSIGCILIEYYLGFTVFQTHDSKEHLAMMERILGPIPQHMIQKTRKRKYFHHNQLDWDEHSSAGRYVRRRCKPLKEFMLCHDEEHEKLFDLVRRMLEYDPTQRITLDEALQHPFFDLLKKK

[27] = target: Serine/threonine-protein kinase TAO1 (Homo sapiens, UniProt Q7L7X3); type: functional
[28] = target: DNA dC->dU-editing enzyme APOBEC-3G (Homo sapiens, UniProt Q9HC16); assay: inhibition of APOBEC3G ssDNA deamination – biochemical, fluorescence, single-stranded DNA substrate, SAR follow-up (AID 602136); type: functional; settings: read-out: IC50_Mean
Sequence of DNA dC->dU-editing enzyme APOBEC-3G (Q9HC16 whole entry): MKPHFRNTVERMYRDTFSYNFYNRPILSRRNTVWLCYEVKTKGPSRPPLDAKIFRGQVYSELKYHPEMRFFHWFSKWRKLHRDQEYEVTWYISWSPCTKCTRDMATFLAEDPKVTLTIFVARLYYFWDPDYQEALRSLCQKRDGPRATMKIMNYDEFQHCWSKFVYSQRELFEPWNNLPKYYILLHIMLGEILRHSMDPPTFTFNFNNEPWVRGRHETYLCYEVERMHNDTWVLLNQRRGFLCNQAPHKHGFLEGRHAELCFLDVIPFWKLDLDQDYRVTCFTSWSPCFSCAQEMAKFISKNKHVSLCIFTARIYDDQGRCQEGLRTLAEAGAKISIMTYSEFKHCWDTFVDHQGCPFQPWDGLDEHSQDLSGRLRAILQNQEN

Cytochrome P450 2C9 = Cytochrome P450 2C9 (Homo sapiens, UniProt P11712)
Sequence of Cytochrome P450 2C9 (P11712 whole entry): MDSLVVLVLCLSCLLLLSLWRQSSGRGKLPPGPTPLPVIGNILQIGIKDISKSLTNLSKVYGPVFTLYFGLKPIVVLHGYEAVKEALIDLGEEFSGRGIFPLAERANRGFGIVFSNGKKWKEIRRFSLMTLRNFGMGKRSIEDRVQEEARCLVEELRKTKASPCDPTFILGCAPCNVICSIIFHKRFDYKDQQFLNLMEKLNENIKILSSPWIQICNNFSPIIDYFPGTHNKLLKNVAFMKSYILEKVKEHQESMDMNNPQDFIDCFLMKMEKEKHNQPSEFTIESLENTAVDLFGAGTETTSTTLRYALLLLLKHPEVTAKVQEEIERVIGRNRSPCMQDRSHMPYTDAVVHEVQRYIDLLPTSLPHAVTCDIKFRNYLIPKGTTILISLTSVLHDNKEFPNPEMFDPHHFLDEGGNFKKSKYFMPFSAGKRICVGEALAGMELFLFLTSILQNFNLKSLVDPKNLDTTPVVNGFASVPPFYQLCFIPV

Cytochrome P450 2C19 = Cytochrome P450 2C19 (Homo sapiens, UniProt P33261); assay: Cytochrome panel assay with activity outcomes. Panel member name: p450-cyp2c19 Compounds with AC50 equal or less than 10 uM are considered active; type: functional; settings: read-out: AC50
[29] = target: DNA dC->dU-editing enzyme APOBEC-3A (Homo sapiens, UniProt P31941); assay: SAR analysis of small molecule inhibitors of APOBEC3A DNA Deaminase via a fluorescence-based single-stranded DNA deaminase assay.; type: functional; settings: read-out: IC50_Mean
Sequence of DNA dC->dU-editing enzyme APOBEC-3A (P31941 whole entry): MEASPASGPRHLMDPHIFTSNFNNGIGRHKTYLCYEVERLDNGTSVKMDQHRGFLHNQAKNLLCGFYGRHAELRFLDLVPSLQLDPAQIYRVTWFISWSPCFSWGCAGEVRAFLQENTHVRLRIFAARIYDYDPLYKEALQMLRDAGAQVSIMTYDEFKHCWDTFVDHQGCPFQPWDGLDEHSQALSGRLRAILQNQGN

Sequence of Glycogen synthase kinase-3 alpha (P49840 whole entry): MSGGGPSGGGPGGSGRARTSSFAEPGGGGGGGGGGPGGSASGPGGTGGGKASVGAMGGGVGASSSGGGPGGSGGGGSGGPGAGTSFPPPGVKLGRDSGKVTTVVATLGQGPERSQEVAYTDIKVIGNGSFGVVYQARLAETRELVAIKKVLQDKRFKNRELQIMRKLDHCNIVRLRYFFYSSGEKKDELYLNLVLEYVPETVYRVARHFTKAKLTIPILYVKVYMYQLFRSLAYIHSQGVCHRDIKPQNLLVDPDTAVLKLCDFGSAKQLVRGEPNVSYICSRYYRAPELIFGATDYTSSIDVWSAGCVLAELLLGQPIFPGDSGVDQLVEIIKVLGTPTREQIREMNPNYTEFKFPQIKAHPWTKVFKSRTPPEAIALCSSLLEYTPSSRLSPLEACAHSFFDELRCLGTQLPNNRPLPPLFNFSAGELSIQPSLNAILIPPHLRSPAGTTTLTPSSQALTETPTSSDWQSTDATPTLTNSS

## CCNc1nc(N)c(C(=O)c2ccc(Cl)s2)s1
[1]
  AC50: < 0.0218 µM (active)
[2]
  AC50: < 0.016 µM (active)
H4
  EC50: > 120 µM (not active)
[3]
  EC50: > 12 µM (not active)
[4]
  EC50: 0.233 µM (active)
[5]
  EC50: 0.19 µM (active)
[6]
  AC50: 0.516 µM (active)
[7]
  EC50: 0.238 µM (active)
[8]
  EC50: 1.21 µM (active)

## COc1ccc(C2CC(C(F)(F)F)n3nc(C(=O)O)c(Cl)c3N2)cc1OC (stereo not drawn)
HEK293 [9]
  EC50: > 54.7 µM (inactive)
Insulin-degrading enzyme [10]
  EC50: > 54.7 µM (inactive)
Insulin-degrading enzyme [11]
  EC50: 50.1 µM (inactive)
HEK293 [12]
  IC50: > 89.2 µM (inactive)

## CC1CCCCC1N(C(=O)c1cc(C2CC2)on1)C1CCCCCC1 (stereo not drawn)
[13]
  EC50: > 50 µM (inactive)
[14]
  EC50: > 50 µM (inactive)

## CCOC(=O)C1=c2sc(=Cc3cccs3)c(=O)n2C(N)=C(C#N)C1c1cccs1 (stereo not drawn)
[15]
  Ki: 5.01 µM (active)
[16]
  Ki: 6.31 µM (active)

## Cc1cc(=O)[nH]nc1-c1ccc(NC(=O)Nc2cccc(Cl)c2)cc1
[17]
  Ki: > 15.8 µM (inactive)
[18]
  Ki: 3.16 µM (active)
[19]
  Ki: > 6.31 µM (inactive)
[20]
  Ki: > 6.31 µM (inactive)
Aurora kinase B
  Ki: 0.631 µM (active)
[21]
  Ki: 2.51 µM (active)
[22]
  Ki: > 6.31 µM (inactive)
[23]
  Ki: 0.631 µM (active)
[24]
  Ki: 1.58 µM (active)
[25]
  Ki: > 7.94 µM (inactive)
[26]
  Ki: 2 µM (active)
[27]
  Ki: > 6.31 µM (inactive)

## CCCCSc1nnc(-c2cc3c(C(F)(F)F)nn(C)c3s2)n1C
[28]
  IC50: 51.6 µM (inactive)
Cytochrome P450 2C9
  AC50: inconclusive
Cytochrome P450 2C19
  AC50: 20 µM (inconclusive)
[29]
  IC50: > 99 µM (inactive)
